# Tested on: CD8+ T cells from PBMC
# Assay: IFN-γ ELISpot, PBMC-derived in vitro expanded CD8+ T cell lines
# Type: cell-based, human
# Set-up: key to T cell recognition by PBMC from a T1D donor: E: T cell recognition by PBMC from a T1D donor was tested and verified; see Figure 5
# Conditions: not given
row,Substance,IFN-γ ELISpot response of expanded CD8+ T cells
1,"TLDGSLHAV [peptide 79, 11]",Responses

# Same assay, conditions: A2 Set Peptides; PBMC T cell lines; responding donors/donors tested
Substance,T1D Donor T cell response,non-T1D Donor T cell response
"RLSDVQIYV [compound 102, 14]",1/4,0/2
"RLYDPTEGMVSV [compound 85, 12]",0/4,0/2
"RVAEVQQVL [compound 107, 14]",0/5,0/2
"RVIGTLEEV [compound 125, 16]",0/4,0/2
"RYLEQLHQL [compound 135, 17]",0/4,0/2
"SLAEGLRTV [compound 120, 16]",0/4,0/2
"SLIGHLQTL [compound 95, 13]",1/4,0/2
"SLLQGSPHL [compound 122, 16]",0/4,0/2
"TLDGSLHAV [peptide 79, 11]",1/5,0/2
"TLVEAIKQV [compound 113, 15]",,0/2
"VIANEIEKV [compound 88, 12]",0/5,0/2
"VLAPRVLRA [compound 126, 16]",0/4,0/2
"VLHEGTNFV [compound 104, 14]",0/4,0/2
"YINEKNVAL [compound 105, 14]",0/4,0/2
"YLHSQVVSV [compound 139, 18]",0/4,0/2
"YLKHRLIVV [compound 134, 17]",0/4,0/2
"YLLEKNRVV [compound 117, 15]",0/4,0/2
"YLLEKSRVV [compound 118, 15]",0/4,0/2

# Same assay, conditions: HPAP-A2 Pool Peptides; PBMC T cell lines; responding donors/donors tested
Substance,T1D Donor T cell response,non-T1D Donor T cell response
RVVGTLHLL [compound 168],0/4,0/4
TAISRIYTV [compound 158],0/4,0/4
VLAFLVHEL [compound 156],1/5,0/4

# Same assay, conditions: MHC-I peptides; superscript E on the peptide; F = verified with C1R-A2 cells
row,Substance,T cell recognition by PBMC from a T1D donor
1,RLSDVQIYV,RLSDVQIYV ^ E
2,RSAAVLALL,"RSAAVLALL ^E,F"
3,SLIGHLQTL,SLIGHLQTL ^ E
4,TLDGSLHAV,TLDGSLHAV ^ E

# Tested on: CD4+ T cells from PBMC
# Assay: IFN-γ ELISpot, PBMC-derived in vitro expanded CD4+ T cell lines
# Type: cell-based, human
# Set-up: key to T cell recognition by PBMC from a T1D donor (mark E) / T cell recognition by PBMC from a T1D donor: E: T cell recognition by PBMC from a T1D donor was tested and verified; see Figure 5
# Conditions: DR3/DQ Set Peptides; PBMC T cell lines; responding donors/donors tested
Substance,T1D Donor T cell response,non-T1D Donor T cell response
AELEDDFKEGYLE [peptide 2],2/4,1/2
APGYLAITKKVAVPY [compound 30],3/4,1/2
DDALVRQDAQDLYEAG [compound 9],0/4,0/2
DLNGDLTATREEF [compound 5],0/4,0/2
EDYYVSKSAVVFGG [compound 28],2/4,1/2
ELSAERPLNEQIAEAE [peptide 32],1/4,0/2
ETDKEQLTAEAKELRQK [peptide 6],1/4,0/2
FQYIIDNKGIDSDAS [compound 31],1/4,0/2
GKRAIILETRQHRLF [peptide 1],0/4,0/2
GREEITYDTPFKREKS [compound 16],3/4,0/2
GSDDWAYDQGIRYS [compound 21],3/4,0/2
GVSDQSFQVEEAKRIKQ [compound 25],0/4,0/2
IDQINTDLNLERSHA [compound 17],0/4,0/2
IGEETVITVDTKAAGKGK [peptide 14],0/4,0/2
IPGYIVDDSVRVEQ [peptide 19],0/4,0/2
ITSIVKDSSAARNGL [peptide 18],2/4,0/2
KARFAKQPAYTLVDR [compound 24],3/4,2/2

# Same assay, conditions: HPAP-DR3 Pool Peptides; PBMC T cell lines; responding donors/donors tested
Substance,T1D Donor T cell response,non-T1D Donor T cell response
APGYLAITKKVAVPY [compound 151],0/4,1/4
GFPTIYFSPANKKLNPK [compound 154],0/4,0/4
IDSLIELSTKLHLPADD [compound 153],0/4,0/4

# Same assay, conditions: MHC-II peptides; superscript E on the peptide; G = verified with QBL cells
row,Substance,T cell recognition by PBMC from a T1D donor
1,AVPEEEGPTVVLXPHPSLG [AVPEEEGPTVVLXPHPSLG (X=deamindated N=asp)],"AVPEEEGPTVVLXPHPSLG^E,G (X=deamindated N=asp)"
2,AVPEEEGPTVVLXPHPSLG [AVPEEEGPTVVLXPHPSLG (X=deamindated N=isoasp)],"AVPEEEGPTVVLXPHPSLG^E,G (X=deamindated N=isoasp)"

# Same assay, conditions: MHC-II peptides; tested and verified, see Figure 5
row,Substance,T cell recognition by PBMC from a T1D donor (mark E)
1,AELEDDFKEGYLE,AE LEDDFKEGY LE ^ E
2,APGY LAITKKVAV PY,E
3,EDYYVSKSAVVFGG,ED YYVSKSAVV FGG ^ E
4,ELSAERPLNEQIAEAE,ELSAERP LNEQIAEAE ^ E
5,ETDKEQLTAEAKELRQK,ETDKEQ LTAEAKELR QK ^ E
6,FQYIIDNKGIDSDAS,FQ YIIDNKGID SDAS ^ E
7,GREEITYDTPFKREKS,GREE ITYDTPFKR EKS ^ E
8,GSDDWAYDQGIRYS,GSDD WAYDQGIRY S ^ E
9,ITSIVKDSSAARNGL,ITS IVKDSSAAR NGL ^ E
10,KARFAKQPAYTLVDR,KAR FAKQPAYTL VDR ^ E

# Same assay, conditions: PTM and unmodified native Pool Peptides (pool PTM 1), long peptides; PBMC T cell lines; responding donors/donors tested
Substance,T1D Donor T cell response,non-T1D Donor T cell response
"AEDLQVGEVELGGGPGAGSLQPL [145-1, PTM peptide, E=deamidated Q=glutamic acid, pool PTM DR3]",0/4,0/4
"AEDLQVGQVELGGGPGAGSLQPL [compound 145, non-modified native peptide, pool PTM DR3]",0/4,0/4
"AVPEEEGPTVVLNPHPSLG [peptide 148, non-modified native peptide from CHGA, pool PTM DR3]",0/4,0/4
"ELSAERPLNEQIAEAE [compound 144, non-modified native peptide, pool PTM DR3]",0/4,0/4
"ELXAERPLNEQIAEAE [144-1, PTM peptide, X=dehydroS=dehydroAla, pool PTM DR3]",0/4,0/4
GSHLVEALYLVCGEXGF [146-2],0/4,0/4

# Same assay, conditions: SEC (Secretory) DR3 Peptides Set; PBMC T cell lines; responding donors/donors tested
Substance,T1D Donor T cell response,non-T1D Donor T cell response
"AAIQDGLAKGENDETVSNT [compound 190, secretory hormone eluted peptide, pool SEC DR3]",0/4,0/4
"DDPDGLHQLDGTPLTAED [compound 189, secretory hormone eluted peptide from SCG3, pool SEC DR3]",0/4,1/4
"DNMNDNFLEGEEENELTLN [compound 185, secretory hormone eluted peptide, pool SEC DR3]",0/4,0/4
"ELSAERPLNEQIAEAE [compound 186, secretory hormone eluted peptide from SCG3, pool SEC DR3]",0/4,1/4
"GRGGEPRAYFMSDTREE [compound 183, secretory hormone eluted peptide, pool SEC DR3]",0/4,0/4
"GSEEYRAPRPQSEESWDEED [compound 181, secretory hormone eluted peptide, pool SEC DR3]",0/4,1/4
"HPQGAWKELDRNY [compound 184, secretory hormone eluted peptide from SCG1, pool SEC DR3]",0/4,1/4

# Same assay, conditions: T1D donors, PBMC-derived lines (Figure 5J)
row,Substance,Number of donors whose CD4 T cells recognized the peptide (IFN-γ ELISpot)
1,AELEDDFKEGYLE [peptide 2],three of the donors
2,APGYLAITKKVAVPY [compound 30],three of the donors
3,GREEITYDTPFKREKS [compound 16],three of the donors
4,KARFAKQPAYTLVDR [compound 24],three of the donors

# Same assay, conditions: control donor LSLP-074; frequencies ∼10-fold lower than for T1D-004 (Figures 5E, 5F, S5B)
row,Substance,IFN-γ ELISpot response of expanded CD4+ T cells
1,AELEDDFKEGYLE [peptide 2],responded
2,KARFAKQPAYTLVDR [compound 24],responded

# Same assay, conditions: control donor LSLP-153; line expanded with megapool HPAP-DR3 + SEC-DR3, tested with individual peptides (Figure S5C)
row,Substance,IFN-γ ELISpot response of expanded CD4 T cells
1,APGYLAITKKVAVPY [compound 151],positive response
2,"DDPDGLHQLDGTPLTAED [compound 189, secretory hormone eluted peptide from SCG3, pool SEC DR3]",IFN-γ responses
3,"ELSAERPLNEQIAEAE [compound 186, secretory hormone eluted peptide from SCG3, pool SEC DR3]",IFN-γ responses
4,"HPQGAWKELDRNY [compound 184, secretory hormone eluted peptide from SCG1, pool SEC DR3]",IFN-γ responses

# — paper PMC12624573, “The antigen presentation landscape of cytokine-stressed human pancreatic islets” (Cell reports, 2025)
